Calls of active or inactive are those of the source. The rule behind the calls is not given here.
What was measured:
Rattus norvegicus [1] = experiment: Inhibition of carrageenan-induced edema in Wistar rat paw at 0.04 mg/kg to 0.51 mg/kg, po; format: functional, organism-based
Rattus norvegicus [2] = experiment: Inhibition of carrageenan-induced edema in Wistar rat paw at 20 mg/kg, po after 3 hrs; format: functional
Rattus norvegicus [3] = experiment: Inhibition of carrageenan-induced edema in Wistar rat paw at 5 mg/kg, po; format: functional, organism-based; set-up: dose 5 mg/kg
Rattus norvegicus [4] = experiment: Inhibition of carrageenan-induced edema in po dosed Wistar rat paw; format: functional

C[C@H]1[C@H](C)CC[C@]2(C(=O)O)CC[C@]3(C)C(=CC[C@@H]4[C@@]5(C)CC[C@H](O)C(C)(C)[C@@H]5CC[C@]43C)[C@H]12
Activity (Rattus norvegicus [1]): inactive

CC1(C)CC[C@]2(C(=O)O)CC[C@]3(C)C(=CC[C@@H]4[C@@]5(C)CC[C@H](O)C(C)(C)[C@@H]5CC[C@]43C)[C@@H]2C1
Activity (Rattus norvegicus [2]): inactive
Activity (Rattus norvegicus [1]): inactive

C=C[C@H]1[C@H](O[C@@H]2O[C@H](CO)[C@@H](O)[C@H](O)[C@H]2O)OC=C(C(=O)OC)[C@H]1C[C@@H]1N[C@@H](C(=O)O)Cc2c1[nH]c1ccccc21
Activity (Rattus norvegicus [1]): inactive

C[C@H]1[C@H](C)CC[C@]2(C(=O)O)CC[C@]3(C(=O)O)C(=CC[C@@H]4[C@@]5(C)CC[C@H](O[C@@H]6O[C@H](C)[C@H](O)[C@H](O[C@@H]7O[C@H](CO)[C@@H](O)[C@H](O)[C@H]7O)[C@H]6O)C(C)(C)[C@@H]5CC[C@]43C)[C@H]12
Activity (Rattus norvegicus [1]): inactive

C[C@H]1[C@H](C)CC[C@]2(C(=O)O)CC[C@]3(C(=O)O[C@@H]4O[C@H](CO)[C@@H](O)[C@H](O)[C@H]4O)C(=CC[C@@H]4[C@@]5(C)CC[C@H](O[C@@H]6O[C@H](C)[C@@H](O)[C@H](O)[C@H]6O)C(C)(C)[C@@H]5CC[C@]43C)[C@H]12
Activity (Rattus norvegicus [2]): 33%
Activity (Rattus norvegicus [1]): inactive

COC(=O)[C@]12CC[C@@H](C)[C@@](C)(O)[C@H]1C1=CC[C@@H]3[C@@]4(C)CC[C@H](O)[C@@](C)(C(=O)OC)[C@@H]4[C@H](O)C[C@@]3(C)[C@]1(C)CC2
Activity (Rattus norvegicus [1]): inactive

C[C@H]1[C@H](C)CC[C@]2(C(=O)O)CC[C@]3(C(=O)O[C@@H]4O[C@H](CO)[C@@H](O)[C@H](O)[C@H]4O)C(=CC[C@@H]4[C@@]5(C)CC[C@H](O[C@@H]6O[C@H](C)[C@H](O)[C@H](O)[C@H]6O)C(C)(C)[C@@H]5CC[C@]43C)[C@H]12
Activity (Rattus norvegicus [1]): inactive

C[C@H]1[C@H](C)CC[C@]2(C(=O)O)CC[C@]3(C(=O)O[C@@H]4O[C@H](CO)[C@@H](O)[C@H](O)[C@H]4O)C(=CC[C@@H]4[C@@]5(C)CC[C@H](O[C@@H]6O[C@H](C)[C@H](O)[C@H](O[C@@H]7O[C@H](CO)[C@@H](O)[C@H](O)[C@H]7O)[C@H]6O)C(C)(C)[C@@H]5CC[C@]43C)[C@H]12
Activity (Rattus norvegicus [1]): inactive

COc1ccc2c(c1)c(CC(=O)O)c(C)n2C(=O)c1ccc(Cl)cc1 [INDOMETHACIN]
Activity (Rattus norvegicus [3]): Active
ED50 (Rattus norvegicus [4]): 0.014 mmol

C[C@@H]1CC[C@]2(C(=O)O)CC[C@]3(C)C(=CC[C@@H]4[C@@]5(C)CC[C@H](O)C(C)(C)[C@@H]5[C@H](O)C[C@]43C)[C@@H]2[C@]1(C)O
Activity (Rattus norvegicus [2]): inactive
Activity (Rattus norvegicus [1]): inactive

C[C@H]1[C@H](C)CC[C@]2(C(=O)O[C@@H]3O[C@H](CO)[C@@H](O)[C@H](O)[C@H]3O)CC[C@]3(C(=O)O)C(=CC[C@@H]4[C@@]5(C)CC[C@H](O[C@@H]6O[C@H](C)[C@H](O)[C@H](O)[C@H]6O)C(C)(C)[C@@H]5CC[C@]43C)[C@H]12
Activity (Rattus norvegicus [1]): inactive

C[C@H]1[C@H](C)CC[C@]2(C(=O)O[C@@H]3O[C@H](CO)[C@@H](O)[C@H](O)[C@H]3O)CC[C@]3(C(=O)O)C(=CC[C@@H]4[C@@]5(C)CC[C@H](O[C@@H]6O[C@H](C)[C@H](O)[C@H](O[C@@H]7O[C@H](CO)[C@@H](O)[C@H](O)[C@H]7O)[C@H]6O)C(C)(C)[C@@H]5CC[C@]43C)[C@H]12
Activity (Rattus norvegicus [1]): inactive

C[C@H]1[C@H](C)CC[C@]2(C(=O)O[C@@H]3O[C@H](CO)[C@@H](O)[C@H](O)[C@H]3O)CC[C@]3(C(=O)O)C(=CC[C@@H]4[C@@]5(C)CC[C@H](O[C@@H]6O[C@H](C)[C@@H](O)[C@H](O)[C@H]6O)C(C)(C)[C@@H]5CC[C@]43C)[C@H]12
Activity (Rattus norvegicus [1]): inactive

Source: ChEMBL document CHEMBL1158949, “Plant metabolites. New compounds and anti-inflammatory activity of Uncaria tomentosa” (1991)
